# Results from ChEMBL document CHEMBL1150279, “Non-peptide gonadotropin-releasing hormone receptor antagonists” (J Med Chem, 2008).
# pIC50, pKi: −log10 of the molar value.
# Experiments:
# [1] = target: T1, Gonadotropin-releasing hormone receptor (Homo sapiens, UniProt P30968); assay: (§1) Binding affinity at human GnRH receptor
# T1 sequence (P30968 whole entry): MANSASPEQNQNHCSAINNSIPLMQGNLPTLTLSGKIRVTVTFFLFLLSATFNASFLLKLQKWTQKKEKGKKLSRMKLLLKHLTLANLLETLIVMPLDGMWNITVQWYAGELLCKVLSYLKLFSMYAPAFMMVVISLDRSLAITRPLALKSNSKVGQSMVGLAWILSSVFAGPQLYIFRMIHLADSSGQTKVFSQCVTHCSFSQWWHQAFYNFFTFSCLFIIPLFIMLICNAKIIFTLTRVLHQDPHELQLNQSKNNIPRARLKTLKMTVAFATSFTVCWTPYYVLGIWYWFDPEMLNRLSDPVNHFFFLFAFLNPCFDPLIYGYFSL
# [2] = Tmax in postmenopausal women at 5 to 200 mg, po; format: ADME, organism-based; conditions: female, human, in vivo
# [3] = Half life in postmenopausal women at 5 to 200 mg, po; format: ADME, organism-based; conditions: female, human, in vivo
# [4] = test system: Rhesus monkey; assay: Suppression of circulating luteinizing hormone in monkey; format: functional, Macaca mulatta
# [5] = target: T2, Gonadotropin-releasing hormone receptor (Macaca mulatta, UniProt Q8SPZ1); assay: Binding affinity at monkey GnRH receptor
# T2 sequence (Q8SPZ1 whole entry): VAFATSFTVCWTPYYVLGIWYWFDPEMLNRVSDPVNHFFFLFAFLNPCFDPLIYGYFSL
# [6] = target: T2, Gonadotropin-releasing hormone receptor; assay: Activity at rhesus monkey GnRH receptor by inositol phosphate functional assay
# [7] = target: T3, Gonadotropin-releasing hormone receptor (Homo sapiens) (UniProt P30968); assay: as §1
# T3 sequence (whole entry): T1 sequence (P30968 whole entry)
# [8] = target: T4, Gonadotropin-releasing hormone receptor (Rattus norvegicus, UniProt P30969); assay: Binding affinity at rat GnRH receptor
# T4 sequence (P30969 whole entry): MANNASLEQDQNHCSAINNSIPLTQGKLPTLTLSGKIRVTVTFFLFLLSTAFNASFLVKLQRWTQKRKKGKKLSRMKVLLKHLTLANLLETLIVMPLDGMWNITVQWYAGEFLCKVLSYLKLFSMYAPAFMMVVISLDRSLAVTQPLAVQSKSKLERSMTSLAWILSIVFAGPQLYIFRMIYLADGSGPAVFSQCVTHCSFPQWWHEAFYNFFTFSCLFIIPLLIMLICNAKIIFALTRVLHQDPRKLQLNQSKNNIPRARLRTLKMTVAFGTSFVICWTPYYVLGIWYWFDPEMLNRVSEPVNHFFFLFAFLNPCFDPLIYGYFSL
# [9] = AUC (0 to 6 hrs) in cynomolgus monkey at 10 mg/kg, po; format: ADME, organism-based, Macaca fascicularis; set-up: time < 6 hr, dose 10 mg/kg, route oral; conditions: plasma
# [10] = AUC (0 to 8 hrs) in healthy male human at 10 mg; format: ADME, organism-based; set-up: dose 10 mg, time < 8 hr; conditions: plasma
# [11] = Binding affinity at cynomolgus monkey GnRH receptor expressed in CHO cells; format: cell-based, Macaca fascicularis
# [12] = test system: Cynomolgus monkey; assay: Suppression of circulating luteinizing hormone in cynomolgus monkey at 30 mg/kg, po relative to baseline; format: functional, Macaca fascicularis
# [13] = AUC (0 to 8 hrs) in healthy male human at 200 mg; format: ADME, organism-based; set-up: dose 200 mg, time < 8 hr; conditions: plasma
# [14] = Cmax in healthy male human at 10 mg; format: ADME, organism-based; set-up: dose 10 mg; conditions: in vivo
# [15] = Inhibition of circulating luteinizing hormone in cynomolgus monkey pituitary cells; format: functional, Macaca fascicularis, Pituitary gland cell
# [16] = test system: Cynomolgus monkey; assay: Suppression of circulating luteinizing hormone in cynomolgus monkey at 10 mg/kg, po relative to baseline; format: functional, Macaca fascicularis
# [17] = Activity at cynomolgus monkey GnRH receptor expressed in CHO cells assessed as inhibition of arachidonic acid release; format: cell-based; conditions: Macaca fascicularis
# [18] = Cmax in healthy male human at 200 mg; format: ADME, organism-based; set-up: dose 200 mg; conditions: in vivo
# [19] = test system: Rattus norvegicus; assay: Suppression of circulating luteinizing hormone in rat at 110 mg/kg, po relative to control; format: functional
# [20] = target: T4, Gonadotropin-releasing hormone receptor; assay: Antagonist activity at rat GnRH receptor assessed as luteinizing hormone release in rat pituitary cells; format: functional, cell-based, Pituitary gland cell; conditions: read-out: pA2 (converted)
# [21] = target: T4, Gonadotropin-releasing hormone receptor; assay: Binding affinity at rat GnRH receptor by competition binding assay
# [22] = test system: Plasma; assay: Protein binding in rat plasma; format: ADME, cell-free
# [23] = target: T1, Gonadotropin-releasing hormone receptor; assay: Binding affinity at human GnRH receptor by calcium mobilization assay; format: functional
# [24] = Oral bioavailability in monkey; format: ADME, organism-based, Macaca mulatta; conditions: rhesus monkey, in vivo
# [25] = Binding affinity to alpha1 adrenergic receptor
# [26] = target: 5-hydroxytryptamine receptor 2B (Homo sapiens) (UniProt P41595); assay: Binding affinity to 5HT2B receptor
# Chain of 5-hydroxytryptamine receptor 2B (Homo sapiens) (P41595 whole entry): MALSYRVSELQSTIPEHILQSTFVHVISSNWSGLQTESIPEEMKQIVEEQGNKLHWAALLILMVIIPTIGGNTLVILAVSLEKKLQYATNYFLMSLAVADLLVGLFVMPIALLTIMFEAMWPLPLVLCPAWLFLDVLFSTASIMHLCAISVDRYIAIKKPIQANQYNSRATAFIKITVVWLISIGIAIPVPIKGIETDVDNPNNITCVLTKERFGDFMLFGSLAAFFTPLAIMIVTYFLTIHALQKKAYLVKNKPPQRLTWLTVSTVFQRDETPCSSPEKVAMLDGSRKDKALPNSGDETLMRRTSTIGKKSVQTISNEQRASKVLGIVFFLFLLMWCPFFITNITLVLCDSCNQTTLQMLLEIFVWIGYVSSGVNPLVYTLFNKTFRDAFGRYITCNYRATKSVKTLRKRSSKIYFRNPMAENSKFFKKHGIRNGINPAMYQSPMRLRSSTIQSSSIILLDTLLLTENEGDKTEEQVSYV
# [27] = target: T4, Gonadotropin-releasing hormone receptor; assay: Binding affinity at rat GnRH receptor by whole cell binding assay
# [28] = target: T1, Gonadotropin-releasing hormone receptor; assay: Binding affinity at human GnRH receptor by competition binding assay
# [29] = Oral bioavailability in rat; format: ADME, organism-based; conditions: in vivo
smiles,measurement,setting,value
COc1cccc(-c2c(C)n(Cc3c(F)cccc3F)c(=O)n(CC(C)(N)c3ccccc3)c2=O)c1F (stereo not drawn),pKi,[1],7.64
N[C@@H](Cn1c(=O)c(Cc2c(F)cccc2F)nn(-c2ccccc2F)c1=O)c1ccccc1,pKi,[1],6.24
C=C1C(Cl)=CC=C1c1c(C)n(Cc2c(F)cccc2F)c(=O)n(C[C@H](N)c2ccccc2)c1=O,pKi,[1],7.85
N[C@@H](Cn1c(=O)c(-c2ccccc2F)c2n(c1=O)C(c1ccccc1)CS2)c1ccccc1 (stereo partly drawn),pKi,[1],6.64
COc1cccc(-c2c(C)n(Cc3c(F)cccc3F)c(=O)n(C[C@H](N)c3ccccc3)c2=O)c1F,Tmax,[2],0.4 h
same,half-life,[3],2.7 h
same,Activity,[4],32%
Cc1cc(-c2c(OCC[C@@H]3CCN3)c3cc(C(=O)Nc4ccncn4)c(Cl)cc3[nH]c2=O)cc(C)c1C,pKi,[5],9.30
same,pIC50,[6],8.15
same,Activity,[7],0.4 nM
COc1cccc(-n2c(=O)c(Cc3c(F)cccc3F)nn(C[C@H](N)c3ccccc3)c2=O)c1,pKi,[1],6.96
CSc1ccc(CN2CCc3c(c(=O)n(CCN(C)CCc4ccccn4)c(=O)n3Cc3c(F)cccc3F)C2)cc1,pKi,[1],7.82
Cc1cc(C)cc(-c2[nH]c3c(c2[C@H](C)CNCCc2ccc(-c4nnn[nH]4)cc2)CN(C(=O)Cc2c(F)cccc2C(F)(F)F)CC3)c1,pIC50,[8],9.70
CONC(=O)Nc1ccc(-c2sc3c(c2CN(C)Cc2ccccc2)c(=O)n(-c2ccccc2)c(=O)n3Cc2c(F)cccc2F)cc1 [SUFUGOLIX],AUC(0-t) at 6 h,[9],0.85 µM·h
same,AUC(0-t) at 8 h,[10],173 ng·h/mL
same,pIC50,[11],9.22
same,Activity,[12],11%
same,AUC(0-t) at 8 h,[13],2560 ng·h/mL
same,Cmax,[14],15 ng/mL
same,Activity,[15],36 nM
same,Activity,[16],18%
same,pIC50,[17],8.00
same,Cmax,[18],274 ng/mL
COc1cccc(-c2c(C)n(Cc3c(F)cccc3C(F)(F)F)c(=O)n(C[C@H](N)c3ccccc3)c2=O)c1F,pKi,[1],9.30
COc1cccc(-c2c(C)n(Cc3c(F)cccc3S(C)(=O)=O)c(=O)n(C[C@H](N)c3ccccc3)c2=O)c1F,pKi,[1],9.70
CC[C@H]1OC(=O)[C@H](C)[C@@H](OC(=O)N2C(=O)OC[C@@H]2C)[C@H](C)[C@@H](O[C@@H]2O[C@H](C)C[C@H](N(C)CC3CC3)[C@H]2O)[C@@](C)(OC)C[C@@H](C)C(=O)[C@H](C)[C@H]2N(CCc3ccc(Cl)c(Cl)c3)C(=O)O[C@]12C,Activity,[19],20%
same,Kb,[20],1.58 nM
COc1cc(OC)c(NC(=O)c2ccc(Cc3cc4c(cc3C)C(C)(C)CCC4(C)C)o2)c(OC)c1,pKi,[21],8.42
same,Activity,[22],99.9%
COc1cccc(-c2c(C)n(Cc3c(F)cccc3F)c(=O)n(C[C@H](C)N(C)CCc3ccccn3)c2=O)c1,pKi,[1],6.33
CCCn1c(SCc2cc([N+](=O)[O-])ccc2OC)nc2cc(NC(=O)NC(C)(C)C)cc(C(=O)NC)c21,pIC50,[23],4.39
CC(C)(C)NC(=O)NCCc1nc2cc(S(=O)(=O)NCc3ccc(Cl)cc3)ccc2n1Cc1ccccc1,pIC50,[23],> 8.00
CN[C@@H](Cc1ccccc1)Cn1c(=O)c(-c2cccc(OC)c2F)c(C)n(Cc2c(F)cccc2F)c1=O,bioavailability,[24],22%
Cc1cc(C)cc(-c2[nH]c3ccc(C(C)(C)C(=O)N4CC5CCC4CC5)cc3c2[C@H](C)CNCCc2ccncc2)c1,Activity,[25],114 nM
same,Activity,[26],165 nM
same,pIC50,[27],8.77
COc1cccc(-c2nn(Cc3c(F)cccc3C(F)(F)F)c(=O)n(C[C@H](N)c3ccccc3)c2=O)c1F,pKi,[1],7.89
CC(C)(C)c1ccc(-c2nc3c(N4CCN(Cc5ccnc(S(C)(=O)=O)n5)CC4)cccc3[nH]2)cc1,pIC50,[28],8.28
COc1cccc(-c2c3n(c(=O)n(C[C@H](N)c4ccccc4)c2=O)C(c2ccccc2F)CS3)c1Cl (stereo partly drawn),pKi,[1],8.35
CCSc1nc2cc(NC(=O)C3CC3)ccc2n1C(C)C,pIC50,[23],5.00
N[C@@H](Cn1c(=O)c(-c2ccccc2F)c2n(c1=O)[C@@H](c1ccccc1)CS2)c1ccccc1,pKi,[1],6.96
CCn1cc(CN2CCN(c3cccc4[nH]c(-c5ccc(C(C)(C)C)cc5)nc34)CC2)c(=O)[nH]c1=O,bioavailability,[29],72%
same,pIC50,[28],8.80
same,pIC50,[21],7.74
COc1cccc(-c2c3n(c(=O)n(C[C@H](N)c4ccccc4)c2=O)C(c2ccccc2F)CS3)c1F (stereo partly drawn),pKi,[1],7.40
COc1cccc(-c2nn(Cc3c(F)cccc3C(F)(F)F)c(=O)n(C[C@H](N)c3ccccc3)c2=O)c1Cl,pKi,[1],8.64
CCc1nc(C)c(CN2CCN(c3cccc4[nH]c(-c5ccc(C(C)(C)C)cc5)nc34)CC2)[nH]1,pIC50,[28],8.18
Cc1c(-c2ccccc2F)c(=O)n(C[C@H](N)c2ccccc2)c(=O)n1Cc1ccccc1F,pKi,[1],7.72
FC(F)(F)c1nc2c(N3CCN(CCOc4cccc5[nH]c(=S)[nH]c45)CC3)cccc2[nH]1,pIC50,[28],6.10
N[C@@H](Cn1c(=O)c(-c2ccccc2F)c2n(c1=O)C(c1ccccc1F)CO2)c1ccccc1 (stereo partly drawn),pKi,[1],6.64
COc1cccc(-c2c(C)n(Cc3c(F)cccc3[S+](C)[O-])c(=O)n(C[C@H](N)c3ccccc3)c2=O)c1F (stereo partly drawn),pKi,[1],8.36
N[C@@H](Cn1c(=O)c(-c2ccccc2F)c2n(c1=O)C(c1ccccc1F)CS2)c1ccccc1 (stereo partly drawn),pKi,[1],6.66
CCSc1nc2cc(S(=O)(=O)NCc3ccccc3OC)ccc2n1Cc1ccccc1,pIC50,[23],5.47
